Data published in US12054457B2, “Polymorphs of (2S,5R)-5-(2-chlorophenyl)-1-(2′-methoxy-[1,1′-biphenyl]-4-carbonyl)pyrrolidine-2-carboxylic acid and preparation processes thereof” (EPICS THERAPEUTICS, priority 2022, dated 2024).
Where a name gives a salt, the structure may show the parent alone. Values belong to the molecule of their own block, whether it stands above or below them.

Tests used:
Format in all cases: physicochemical
[1] = Hygroscopicity: weight gain on storage at fixed relative humidity
Source text: The previously described solid forms of (2S,5R)-5-(2-chlorophenyl)-1-(2′-methoxy-[1,1′-biphenyl]-4-carbonyl)pyrrolidine-2-carboxylic acid, i.e. the amorphous free acid and the corresponding Na salt, both disclosed in WO2021/250174, are hygroscopic.

[2] = Thermal gravimetric analysis (TGA); conditions: temperature range 10° C.-200° C., 10° C./min, nitrogen purge
Description: The thermal gravimetric analysis (TGA) experiments were performed on a Mettler Toledo TGA/DSC3+ apparatus. The samples (about 10-30 mg) were placed in a 100 μL aluminum sample pan and crimped with a punctured cover. […]

[3] = Thermodynamic stability over time
[4] = Cross-seeding tests in water and n-heptane; conditions: 25° C., form II suspension seeded with form I
Description: Cross-seeding tests were carried out in water and n-heptane.
Method. Saturated solutions of form II were prepared at 25° C. in water and in n-heptane. The suspensions were then seeded with form I after 45 minutes, and kept under stirring at 25° C. The solid phases in suspensions were then periodically controlled by XRPD.

[5] = Hygroscopicity by dynamic vapor sorption (DVS)
Description: The determination of the hygroscopicity of crystalline forms I and II was also evaluated by dynamic vapor sorption (DVS).
The analyses were performed on a Surface Measurements System DVS Intrinsic. The samples were placed in an open aluminum pan. The analyses were performed at 25° C. Relative humidity (RH) was scanned between 0% RH and 95% RH, with 10% RH steps (40-0-95-0-95). The stability criterion was a variation in mass lower than 0.002% on a 5 min. window, with a minimum step time of 10 min and a maximum of 100 min.

[6] = Competitive slurry test between form I and form II in isopropyl alcohol
Description: A competitive slurry test between form I and form II of compound (1) was carried out at 10° C., 20° C., 25° C., 30° C. and 40° C. in isopropyl alcohol.
Method. Suspensions of compound (1) under form II, in isopropyl alcohol, were first prepared and equilibrated for 30 min at each of the temperatures to be studied. About 800 μL of the saturated solutions were then sampled, filtered through a 0.2 μm HPTFE filter, and added into a vial containing 50 mg of form I and 50 mg of form II, equipped with a magnetic rod. After 10 seconds, a first sample of the solid phase is taken and analyzed by XRPD to identify the solid phase(s) present. Additional sampling are also performed until only 1 solid phase remains.

[7] = Competitive slurry test between form I and form II in n-heptane; conditions: 10° C., 20° C., 25° C., 30° C. and 40° C.
Description: A competitive slurry test between form I and form II of compound (1) was carried out at 10° C., 20° C., 25° C., 30° C. and 40° C. in n-heptane.
Method. About 1 mL of n-heptane was added into vials containing 40 mg of form I and 40 mg of form II, equipped with a magnetic rod. After 10 seconds, a first sample of the solid phase is taken and analyzed by XRPD to identify the solid phase(s) present. Additional sampling are also performed until only 1 solid phase remains.

- weight gain ([1]; 40% relative humidity, after 14 h): 7 wt %
- weight gain ([1]; 70% relative humidity, 22° C., after 14 h): 20 wt %
Compound: COc1ccccc1-c1ccc(C(=O)N2[C@@H](c3ccccc3Cl)CC[C@H]2C(=O)O)cc1 [Na salt, (2S,5R)-5-(2-chlorophenyl)-1-(2′-methoxy-[1,1′-biphenyl]-4-carbonyl)pyrrolidine-2-carboxylic acid]

- weight gain ([1]; 40% relative humidity, after 2 days): 3 wt %
- weight gain ([1]; 70-75% relative humidity, room temperature, after 14 h): 8 wt %
- hygroscopicity (in words) ([1]; previously described solid forms): hygroscopic
Compound: COc1ccccc1-c1ccc(C(=O)N2[C@@H](c3ccccc3Cl)CC[C@H]2C(=O)O)cc1 [amorphous free acid, (2S,5R)-5-(2-chlorophenyl)-1-(2′-methoxy-[1,1′-biphenyl]-4-carbonyl)pyrrolidine-2-carboxylic acid]

- weight gain ([1]; 80% relative humidity, 25° C., after 10 days): 0.09 wt %
- weight loss (TGA) ([2]; listed as crystalline form I): −0.14%
- time for which the form is thermodynamically stable [3]: at least 6 months
- relative stability of the forms [4]: greater stability of form I vs. form II
- hygroscopicity (conclusion in words) ([5]; DVS and humidity exposure): non-hygroscopic
- weight loss on first desorption stage ([5]; DVS, 25° C., 40% RH to 0% RH): −0.1%
- weight gain at the end of the step at 70% RH ([5]; DVS, 25° C., first sorption stage (0% RH to 95% RH)): +0.1%
- maximum weight gain at 95% RH ([5]; DVS, 25° C., first sorption stage (0% RH to 95% RH), listed as crystalline form I): +0.7%
- relative stability of the forms ([6]; 10° C., 20° C., 25° C., 30° C. and 40° C.): more stable than form II
Compound: COc1ccccc1-c1ccc(C(=O)N2[C@@H](c3ccccc3Cl)CC[C@H]2C(=O)O)cc1 [form I, (2S,5R)-5-(2-chlorophenyl)-1-(2′-methoxy-[1,1′-biphenyl]-4-carbonyl)pyrrolidine-2-carboxylic acid]

- weight loss (TGA) ([2]; listed as crystalline form II): −0.2%
- maximum weight gain at 95% RH ([5]; DVS, 25° C., first sorption stage (0% RH to 95% RH), listed as crystalline form II): +0.4%
- solid phase conversion (XRPD) [7]: conversion of form II into form I
Compound: COc1ccccc1-c1ccc(C(=O)N2[C@@H](c3ccccc3Cl)CC[C@H]2C(=O)O)cc1 [form II, (2S,5R)-5-(2-chlorophenyl)-1-(2′-methoxy-[1,1′-biphenyl]-4-carbonyl)pyrrolidine-2-carboxylic acid]
- solid phase present in suspension (XRPD) ([6]; 10-40° C., first sampling after 10 seconds): not visible anymore in the suspensions since the first sampling
